Tested on: NCI-H1618 multicellular tumor spheroid viability
Experiment: Anticancer human tumor NCI-H1618 cell line growth inhibition;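 note: spheroids exposed to agents for 7 days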
Details: for IC50: curve of first compound; for viability, T/C: stronger effect = lower value
Summary of the method: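 Single agents and combinations were tested on spheroids built from tumor cells plus HUVEC and hMSC, at half-log dilutions starting at or near clinical Cmax, else 10 microM; final DMSO 0.25% (v/v).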

[1] = second compound 0.003 µM, first compound 0.0316 µM
[2] = second compound 0.003 µM, first compound 0.1 µM
[3] = second compound 0.003 µM, first compound 0.316 µM
[4] = second compound 0.003 µM, first compound 1 µM
[5] = second compound 0.003 µM, first compound 3.16 µM
[6] = second compound 0.003 µM, first compound 10 µM
[7] = second compound 0.00949 µM, first compound 0.0316 µM
[8] = second compound 0.00949 µM, first compound 0.1 µM
[9] = second compound 0.00949 µM, first compound 0.316 µM
[10] = second compound 0.00949 µM, first compound 1 µM
[11] = second compound 0.00949 µM, first compound 3.16 µM
[12] = second compound 0.00949 µM, first compound 10 µM
[13] = second compound 0.03 µM, first compound 0.0316 µM
[14] = second compound 0.03 µM, first compound 0.1 µM
[15] = second compound 0.03 µM, first compound 0.316 µM
[16] = second compound 0.03 µM, first compound 1 µM
[17] = second compound 0.03 µM, first compound 3.16 µM
[18] = second compound 0.03 µM, first compound 10 µM
[19] = second compound 0.0949 µM, first compound 0.0316 µM
[20] = second compound 0.0949 µM, first compound 0.1 µM
[21] = second compound 0.0949 µM, first compound 0.316 µM
[22] = second compound 0.0949 µM, first compound 1 µM
[23] = second compound 0.0949 µM, first compound 3.16 µM
[24] = second compound 0.0949 µM, first compound 10 µM
[25] = second compound 0.3 µM, first compound 0.0316 µM
[26] = second compound 0.3 µM, first compound 0.1 µM
[27] = second compound 0.3 µM, first compound 0.316 µM
[28] = second compound 0.3 µM, first compound 1 µM
[29] = second compound 0.3 µM, first compound 3.16 µM
[30] = second compound 0.3 µM, first compound 10 µM

Row | Structure (SMILES) | IC50 (second compound 0.003 µM) [nM] | IC50 (second compound 0.00949 µM) [nM] | IC50 (second compound 0.03 µM) [nM] | IC50 (second compound 0.0949 µM) [nM] | IC50 (second compound 0.3 µM) [nM] | viability, T/C [1] [%] | viability, T/C [2] [%] | viability, T/C [3] [%] | viability, T/C [4] [%] | viability, T/C [5] [%] | viability, T/C [6] [%] | viability, T/C [7] [%] | viability, T/C [8] [%] | viability, T/C [9] [%] | viability, T/C [10] [%] | viability, T/C [11] [%] | viability, T/C [12] [%] | viability, T/C [13] [%] | viability, T/C [14] [%] | viability, T/C [15] [%] | also measured
1 | CC1COCCN1c1cc(-c2ccnn2C)c2ccnc(-c3ccn[nH]3)c2n1 (stereo not given) + CC[C@@]1(O)C(=O)OCc2c1cc1n(c2=O)Cc2cc3c(CN(C)C)c(O)ccc3nc2-1 | < 31.6 | < 31.6 | < 31.6 | < 31.6 | < 31.6 | 29.3 | 15.1 | 7 | 2.06 | 2.27 | 0.99 | 7.33 | 4.63 | 4.22 | 2.35 | 2.23 | 1.12 | 2.57 | 3.94 | 3.52 | viability, T/C [16]: 1.99%; viability, T/C [17]: 1.19%; viability, T/C [18]: 0.71%; viability, T/C [19]: 3.01%; viability, T/C [20]: 2.44%; viability, T/C [21]: 5%; viability, T/C [22]: 2.35%; viability, T/C [23]: 2.1%; viability, T/C [24]: 0.81%; viability, T/C [25]: 1.79%; viability, T/C [26]: 1.4%; viability, T/C [27]: 1.52%; viability, T/C [28]: 1.45%; viability, T/C [29]: 0.77%; viability, T/C [30]: 0.65%
2 | COc1cc(C)[nH]c(=O)c1CN1CCc2c(Cl)cc(C(OC)C3COC3)c(Cl)c2C1=O (stereo not given) + CC[C@@]1(O)C(=O)OCc2c1cc1n(c2=O)Cc2cc3c(CN(C)C)c(O)ccc3nc2-1 | > 10000 | < 31.6 | < 31.6 | < 31.6 | < 31.6 | 54.1 | 52.3 | 78.8 | 63.3 | 83.5 | 53.2 | 39.5 | 10.9 | 17.2 | 40.1 | 38.8 | 29.1 | 6.67 | 5.82 | 8.79 | viability, T/C [16]: 4.86%; viability, T/C [17]: 5.97%; viability, T/C [18]: 7.23%; viability, T/C [19]: 6.1%; viability, T/C [20]: 2.42%; viability, T/C [21]: 2.48%; viability, T/C [22]: 6.01%; viability, T/C [23]: 4.18%; viability, T/C [24]: 6.78%; viability, T/C [25]: 2.05%; viability, T/C [26]: 2.31%; viability, T/C [27]: 2%; viability, T/C [28]: 1.4%; viability, T/C [29]: 3.18%; viability, T/C [30]: 2.92%
3 | COc1ccc([C@@H](O)c2cc(-c3ncnc4cc(N5CCOCC5)ccc34)c(F)cc2Cl)nn1 + CC[C@@]1(O)C(=O)OCc2c1cc1n(c2=O)Cc2cc3c(CN(C)C)c(O)ccc3nc2-1 | 2580 | < 31.6 | < 31.6 | < 31.6 | < 31.6 | 98.9 | 71.7 | 95.3 | 77 | 44.2 | 14.9 | 42.3 | 27.2 | 54 | 48.5 | 36 | 11.8 | 2.44 | 3.37 | 3.22 | viability, T/C [16]: 2.13%; viability, T/C [17]: 2.99%; viability, T/C [18]: 0.99%; viability, T/C [19]: 4.05%; viability, T/C [20]: 2.6%; viability, T/C [21]: 6.24%; viability, T/C [22]: 2.56%; viability, T/C [23]: 1.11%; viability, T/C [24]: 1.58%; viability, T/C [25]: 2.38%; viability, T/C [26]: 2.02%; viability, T/C [27]: 2.24%; viability, T/C [28]: 2.64%; viability, T/C [29]: 1.97%; viability, T/C [30]: 0.5%
4 | [2H]c1nc(C)nc([2H])c1-c1cc(NC[C@@H](C)c2cccc3c(C(=O)NC)ccnc23)ncn1 + CC[C@@]1(O)C(=O)OCc2c1cc1n(c2=O)Cc2cc3c(CN(C)C)c(O)ccc3nc2-1 | < 31.6 | < 31.6 | < 31.6 | < 31.6 | < 31.6 | 43.8 | 7.02 | 138 | 158 | 108 | 57.3 | 23 | 4.37 | 42.7 | 109 | 70.8 | 29.9 | 12 | 7.3 | 15.2 | viability, T/C [16]: 21.4%; viability, T/C [17]: 22%; viability, T/C [18]: 26.6%; viability, T/C [19]: 11.4%; viability, T/C [20]: 10.8%; viability, T/C [21]: 3.24%; viability, T/C [22]: 24.5%; viability, T/C [23]: 22.6%; viability, T/C [24]: 21.6%; viability, T/C [25]: 9.96%; viability, T/C [26]: 5.33%; viability, T/C [27]: 2.69%; viability, T/C [28]: 14.1%; viability, T/C [29]: 16.1%; viability, T/C [30]: 4.13%
